Experimental data: ChEMBL document CHEMBL4831554, “Diverse, Potent, and Efficacious Inhibitors That Target the EED Subunit of the Polycomb Repressive Complex 2 Methyltransferase” (J Med Chem, 2021)

Experiments:
[1] = Clearance in rat at 1 mg/kg, po or 0.5 mg/kg, iv; type: ADME, organism-based; settings: in vivo
[2] = Lipophilicity, logD of the compound in Octanol/phosphate buffer at pH 7.4 after 30 mins by shake-flask method; type: physicochemical
[3] = Intrinsic clearance in human liver microsomes at 1 uM preincubated with NADPH for 5 mins followed by compound addition and measured upto 30 mins by LC-MS/MS analysis; type: ADME, Microsome; settings: read-out: CLH
[4] = Volume of distribution at steady state in rat at 1 mg/kg, po or 0.5 mg/kg, iv; type: ADME, organism-based; settings: in vivo, read-out: Vdss
[5] = Bioavailability in rat at 1 mg/kg, po or 0.5 mg/kg, iv; type: ADME, organism-based; settings: in vivo
[6] = Intrinsic clearance in human hepatocytes assessed per million cells at 1 uM measured upto 30 mins by HPLC analysis; type: ADME, cell-based, Hepatocyte; settings: read-out: CLH
[7] = Apparent permeability of compound in human Caco-2 cells; type: ADME, cell-based

logD at 0.5 h [2]	microsomal CLint at 1 µM [3] [µL/min/mg]	SMILES	other results
2.5	15	Cc1ncccc1-c1cnc(NCc2c(F)ccc3c2CCO3)n2cnnc12	clearance [1]: 1.14 L/h/kg; Vd [4]: 3.7 L/kg; bioavailability [5]: 74%; hepatocyte CLint at 1 µM [6]: 2.6 µL/min/1e6 cells; Papp [7]: 38.7 10^-6 cm/s
2.2	151	Cc1ncccc1-c1cnc(NCc2c(F)ccc3c2CCO3)c2nn(CC#N)c(=O)n12	–
2.7	16	O=C1Cc2ccccc2CN1c1cnc(NCc2c(F)ccc3c2CCO3)n2cnnc12	–
2.7	24	O=C1Oc2ccccc2CN1c1cnc(NCc2c(F)ccc3c2CCO3)n2cnnc12	–
2.7	13	O=C1c2ccccc2CN1c1cnc(NCc2c(F)ccc3c2CCO3)n2cnnc12	hepatocyte CLint at 1 µM [6]: 2.7 µL/min/1e6 cells
1.6	5.7	CN(c1cn(C)cn1)c1cnc(NCc2c(F)ccc3c2CCO3)n2cnnc12	–
2.9	23	CNC(=O)c1ccc(-c2cnc(NCc3c(F)ccc4c3CCO4)c3cn[nH]c(=O)c23)c(C)n1	clearance [1]: 1.44 L/h/kg; Vd [4]: 2.7 L/kg; bioavailability [5]: 53%; hepatocyte CLint at 1 µM [6]: 3 µL/min/1e6 cells; Papp ([7]; read-out: Papp): 541 nm/s
1.8	13	CN(C)Cc1ccc(C(=O)Nc2cnc(NCc3c(F)ccc4c3CCO4)n3cnnc23)cc1	–
2.1	8	Cc1nccn1-c1cnc(NCc2c(F)ccc3c2CCO3)c2cn[nH]c(=O)c12	–
2.1	19	Cc1nc(C(=O)N(C)C)ccc1-c1cnc(NCc2c(F)ccc3c2CCO3)c2cn[nH]c(=O)c12	clearance [1]: 3.24 L/h/kg; Vd [4]: 1.9 L/kg; bioavailability [5]: 22%; hepatocyte CLint at 1 µM [6]: < 1.3 µL/min/1e6 cells; Papp ([7]; read-out: Papp): 17 nm/s
2.5	24	CNC(=O)c1ncc(-c2cnc(NCc3c(F)ccc4c3CCO4)c3cn[nH]c(=O)c23)n1C	–
1.8	23	O=C1CCCN1c1cnc(NCc2c(F)ccc3c2CCO3)c2cn[nH]c(=O)c12	–
1.3	< 3	O=C1CCCN1c1cnc(NCc2c(F)ccc3c2CCO3)n2cnnc12	–
2.1	21	CN(C)C(=O)c1cc(-c2cnc(NCc3c(F)ccc4c3CCO4)c3cn[nH]c(=O)c23)n(C)n1	–
1.4	5.2	CN(c1ccncc1)c1cnc(NCc2c(F)ccc3c2CCO3)n2cnnc12	–
2.2	8.9	CN(c1cnn(C)c1)c1cnc(NCc2c(F)ccc3c2CCO3)n2cnnc12	–
1.9	10	Cc1ncc(-c2cnc(NCc3c(F)ccc4c3CCO4)c3cn[nH]c(=O)c23)n1C	–
2.6	14	Cn1nccc1-c1cnc(NCc2c(F)ccc3c2CCO3)c2cn[nH]c(=O)c12	–
3.1	20	COc1ccccc1C(=O)Nc1cnc(NCc2c(F)ccc3c2CCO3)n2cnnc12	–
3.6	55	CN(c1ccccc1)c1cnc(NCc2c(F)ccc3c2CCO3)n2cnnc12	–
3	10	O=C(Nc1cnc(NCc2c(F)ccc3c2CCO3)n2cnnc12)c1ccccc1	–
1.9	< 3	O=C1CC2(CC2)CN1c1cnc(NCc2c(F)ccc3c2CCO3)n2cnnc12	clearance [1]: 1.38 L/h/kg; Vd [4]: 1.4 L/kg; bioavailability [5]: 68%; hepatocyte CLint at 1 µM [6]: 3.5 µL/min/1e6 cells
2.2	32	CN(C)Cc1ccc2c(c1)CN(c1cnc(NCc3c(F)ccc4c3CCO4)c3cn[nH]c(=O)c13)C2=O	–
3.3	20	Fc1ccc2c(c1CNc1ncc(Nc3ccccc3)c3nncn13)CCO2	–
3	24	Cc1cc(-c2cnc(NCc3c(F)ccc4c3CCO4)c3cn[nH]c(=O)c23)n(C)n1	–

logD at 0.5 h [2]	microsomal CLint at 1 µM [3] [µL/min/mg]	SMILES	other results
3.5	18	Fc1ccc2c(c1CNc1ncc(Oc3ccccc3)c3nncn13)CCO2	–
1.8	11	CN(c1ccn(C)n1)c1cnc(NCc2c(F)ccc3c2CCO3)n2cnnc12	clearance [1]: 1.74 L/h/kg; Vd [4]: 3 L/kg; bioavailability [5]: 67%; hepatocyte CLint at 1 µM [6]: < 1 µL/min/1e6 cells
1.8	< 3	C[C@H]1CC(=O)N(c2cnc(NCc3c(F)ccc4c3CCO4)n3cnnc23)C1	–
2.1	11	CN(c1ncco1)c1cnc(NCc2c(F)ccc3c2CCO3)n2cnnc12	clearance [1]: 1.74 L/h/kg; Vd [4]: 3.1 L/kg; bioavailability [5]: 61%; hepatocyte CLint at 1 µM [6]: 1.4 µL/min/1e6 cells
3	41	Cc1ncccc1-c1cnc(NCc2c(F)ccc3c2CCO3)c2cn[nH]c(=O)c12	hepatocyte CLint at 1 µM [6]: 4.6 µL/min/1e6 cells
2.7	21	Cn1cc(-c2cnc(NCc3c(F)ccc4c3CCO4)c3cn[nH]c(=O)c23)cn1	–
2	13	Cc1nc(CN(C)C)ccc1-c1cnc(NCc2c(F)ccc3c2CCO3)c2cn[nH]c(=O)c12	Papp ([7]; read-out: Papp): < 6 nm/s
2.5	8	Cc1ncccc1-c1cnc(NCc2c(F)ccc3c2CCO3)c2n[nH]c(=O)n12	–
2.6	80	CN(c1cccnc1)c1cnc(NCc2c(F)ccc3c2CCO3)n2cnnc12	–
2.1	< 3	CNC(=O)c1cc(-c2cnc(NCc3c(F)ccc4c3CCO4)c3cn[nH]c(=O)c23)n(C)n1	–
1.6	5	O=C1c2cnccc2CN1c1cnc(NCc2c(F)ccc3c2CCO3)n2cnnc12	–
1.6	19	CN(C)Cc1ccc2c(c1)CN(c1cnc(NCc3c(F)ccc4c3CCO4)n3cnnc13)C2=O	–
4.1	14	O=C(Nc1ccccc1)c1cnc(NCc2c(F)ccc3c2CCO3)n2cnnc12	–
2.8	27	Cc1nn(C)cc1-c1cnc(NCc2c(F)ccc3c2CCO3)c2cn[nH]c(=O)c12	–
3	36	Cc1ncccc1-c1cnc(NCc2c(F)ccc3c2CCO3)n2c(=O)[nH]nc12	–
2.4	11	Cc1nc(CO)ccc1-c1cnc(NCc2c(F)ccc3c2CCO3)c2cn[nH]c(=O)c12	–
1.6	18	O=C1c2ccc(OCCN3CCCC3)cc2CN1c1cnc(NCc2c(F)ccc3c2CCO3)n2cnnc12	clearance [1]: 2.1 L/h/kg; Vd [4]: 6.5 L/kg; Papp ([7]; read-out: Papp): < 6 nm/s
2.4	62	CN(c1ccn(C)n1)c1cnc(NCc2c(F)ccc3c2CCO3)c2cn[nH]c(=O)c12	–
2.9	207	CC(=O)N1CCC(c2cnc(NCc3c(F)ccc4c3CCO4)c3cn[nH]c(=O)c23)CC1	–
1.8	< 3	C[C@@H]1CC(=O)N(c2cnc(NCc3c(F)ccc4c3CCO4)n3cnnc23)C1	–
2	16	CC1(C)CC(=O)N(c2cnc(NCc3c(F)ccc4c3CCO4)n3cnnc23)C1	–
2	< 3	O=C(Nc1cnc(NCc2c(F)ccc3c2CCO3)n2cnnc12)c1cccnc1	–
2.8	21	Cc1ncccc1-c1cnc(NCc2c(F)ccc3c2CCO3)c2ncc(=O)[nH]c12	–
1.4	< 3	COCCC(=O)Nc1cnc(NCc2c(F)ccc3c2CCO3)n2cnnc12	–
2.4	> 300	CN(C(=O)c1ccccc1)c1cnc(NCc2c(F)ccc3c2CCO3)n2cnnc12	–
